Among the data in patent US12486269B2 (Aconcagua Bio, Inc., priority 2024, dated 2025) are EC50 values, retold here.

Test [1] deals with T1, human calcitonin receptor (CTR) (Homo sapiens, UniProt P30988).
T1 construct: expressed in transfected cells; host or cells: COS-7 (COS7-human CTR Clone #2)
T1 sequence (P30988 25-474): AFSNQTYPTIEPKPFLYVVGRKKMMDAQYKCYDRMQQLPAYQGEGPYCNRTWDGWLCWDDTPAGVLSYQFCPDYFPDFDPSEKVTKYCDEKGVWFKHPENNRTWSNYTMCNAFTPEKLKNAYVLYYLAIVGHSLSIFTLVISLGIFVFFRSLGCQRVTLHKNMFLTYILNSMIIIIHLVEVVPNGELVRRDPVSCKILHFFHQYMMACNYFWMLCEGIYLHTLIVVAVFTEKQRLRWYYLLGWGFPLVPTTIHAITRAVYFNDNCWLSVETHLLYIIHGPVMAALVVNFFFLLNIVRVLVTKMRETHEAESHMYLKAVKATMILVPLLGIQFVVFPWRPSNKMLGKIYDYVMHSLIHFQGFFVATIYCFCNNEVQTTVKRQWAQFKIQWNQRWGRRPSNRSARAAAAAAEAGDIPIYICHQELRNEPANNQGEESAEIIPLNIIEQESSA
Description: Calcitonin Receptor (CTR) cAMP Assay. The format is cell-based. To be noted: COS7-human CTR Clone #2 stable cell line, cAMP dynamic 2 kit, 30 min; read-out: Calcitonin Receptor cAMP Stimulation Activity: EC50. Put shortly:
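cAMP accumulation was measured by HTRF cAMP dynamic 2 read at 665/615 nm, 1 h at room temperature, with results scaled between vehicle and positive control. Before detection, COS7-human CTR stable cells were stimulated 30 min at 37 °C with compound (4-fold dilutions) in IBMX-containing HBSS/HEPES/casein buffer.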

Test [2] concerns the target T2, COS-7/AMY3 (human calcitonin receptor (CTR) and RAMP3) (Homo sapiens, UniProt O60896+P30988).
T2 construct: expressed in transfected cells; host or cells: COS-7
Description: Amylin Receptor cAMP Assay II. It is filed as cell-based. To be noted: values marked **: Amylin Receptor cAMP Assay II; COS-7/AMY3 cells, cAMP dynamic 2 kit, 30 min; read-out: Amylin Receptor cAMP Stimulation Activity: EC50. The method in brief:
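Agonist-induced cAMP was quantified by HTRF ratio at 665/615 nm and expressed as % of the window from vehicle to MAX control. Stimulation lasted 30 min at 37 °C in HBSS/20 mM HEPES/0.5 mM IBMX/0.1% casein, using stable human CTR+RAMP3 (AMY3) COS-7 cells at 2000 per well.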

T2 sequence (O60896 24-148, one chain of several): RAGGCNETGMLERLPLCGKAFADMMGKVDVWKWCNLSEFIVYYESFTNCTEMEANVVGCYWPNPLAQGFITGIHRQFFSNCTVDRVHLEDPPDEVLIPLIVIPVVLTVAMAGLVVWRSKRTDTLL

As to `O=C1c2c(nc(CCc3ccc(F)cc3)c(-c3n[nH]c(=O)o3)c2-c2ccc3c(c2)CCCN3Cc2ccc(F)cc2F)[C@@H]2CCCN12` [Compound 220, (S)-5-(4-(1-(2,4-difluorobenzyl)-1,2,3,4-tetrahydroquinolin-6-yl)-2-(4-fluorophenethyl)-5-oxo-7,8,9,9a-tetrahydro-5H-pyrido[2,3-a]pyrrolizin-3-yl)-1,3,4-oxadiazol-2(3H)-one], the EC50 was 20.5 nM in test [1] and 11400 nM in test [2].
Turning to `COc1c(F)ccc2c1CC[C@H]2Nc1nc(C)cc2cc(-c3c4c(nc(CCc5ccc(F)cc5)c3-c3n[nH]c(=O)o3)C(C3CC3)NC4=O)sc12` (stereo partly drawn) [Compound 302, 5-(7-cyclopropyl-4-(7-(((R)-5-fluoro-4-methoxy-2,3-dihydro-1H-inden-1-yl)amino)-5-methylthieno[2,3-c]pyridin-2-yl)-2-(4-fluorophenethyl)-5-oxo-6,7-dihydro-5H-pyrrolo[3,4-b]pyridin-3-yl)-1,3,4-oxadiazol-2(3H)-one], the EC50 in test [1] stood at 0.134 nM; in test [2] it was 3.97 nM.
On to `O=C1c2c(nc(CCc3ccc(F)cc3)c(-c3n[nH]c(=O)o3)c2-c2cc3ccnc(N[C@@H]4CCc5cc(F)ccc54)c3s2)[C@@H]2CCCN12` [Compound 184, 5-((S)-4-(7-(((R)-5-fluoro-2,3-dihydro-1H-inden-1-yl)amino)thieno[2,3-c]pyridin-2-yl)-2-(4-fluorophenethyl)-5-oxo-7,8,9,9a-tetrahydro-5H-pyrido[2,3-a]pyrrolizin-3-yl)-1,3,4-oxadiazol-2(3H)-one], for which the EC50 in test [1] turned out to be 0.247 nM; in test [2], 3.59 nM.
In the case of `COc1cccc2c1CC[C@H]2Nc1nccc2cc(-c3c(-c4n[nH]c(=O)o4)c(CCc4ccc(F)cc4)nc4c3S(=O)(=O)CC4(C)C(C)C)sc12` (stereo partly drawn) [Compound 212, 5-(5-(4-fluorophenethyl)-3-isopropyl-7-(7-(((R)-4-methoxy-2,3-dihydro-1H-inden-1-yl)amino)thieno[2,3-c]pyridin-2-yl)-3-methyl-1,1-dioxido-2,3-dihydrothieno[3,2-b]pyridin-6-yl)-1,3,4-oxadiazol-2(3H)-one], the EC50 in test [1] turned out to be 526 nM; in test [2], 11700 nM.
As for `COc1cccc2c1CC[C@H]2Nc1nccc2cc(-c3c4c(nc(C[C@@H]5CCc6cc(F)ccc65)c3-c3n[nH]c(=O)o3)[C@@H]3CCCN3C4=O)sc12` [Compound 250, 5-((S)-2-(((S)-5-fluoro-2,3-dihydro-1H-inden-1-yl)methyl)-4-(7-(((R)-4-methoxy-2,3-dihydro-1H-inden-1-yl)amino)thieno[2,3-c]pyridin-2-yl)-5-oxo-7,8,9,9a-tetrahydro-5H-pyrido[2,3-a]pyrrolizin-3-yl)-1,3,4-oxadiazol-2(3H)-one], the EC50 in test [1] was determined as 4.5 nM; in test [2] it was 102 nM.
With `COc1cccc2c1CC(F)(F)[C@H]2Nc1nccc2cc(-c3c4c(nc(CCc5ccc(F)cc5)c3-c3n[nH]c(=O)o3)C35CC(CN3C4=O)C5)sc12` [Compound 281, (S)-5-(4-(7-((2,2-difluoro-4-methoxy-2,3-dihydro-1H-inden-1-yl)amino)thieno[2,3-c]pyridin-2-yl)-2-(4-fluorophenethyl)-5-oxo-5,7,8,9-tetrahydro-8,9a-methanopyrido[2,3-a]pyrrolizin-3-yl)-1,3,4-oxadiazol-2(3H)-one], the values for the EC50 in test [1] and in test [2] were 0.239 nM and 0.733 nM, respectively.
On to `O=C1c2c(nc(CCc3ccc(F)cc3)c(-c3n[nH]c(=O)o3)c2-c2cc3ccnc(N[C@@H]4CCc5nc(C(F)(F)F)ccc54)c3s2)[C@@H]2CCCN12` [Compound 247, 5-((S)-2-(4-fluorophenethyl)-5-oxo-4-(7-(((R)-2-(trifluoromethyl)-6,7-dihydro-5H-cyclopenta[b]pyridin-5-yl)amino)thieno[2,3-c]pyridin-2-yl)-7,8,9,9a-tetrahydro-5H-pyrido[2,3-a]pyrrolizin-3-yl)-1,3,4-oxadiazol-2(3H)-one], for which the half-maximal effective concentration (EC50) amounted to 21.1 nM in test [1] and 2410 nM in test [2].
Turning to `O=c1cc(-c2c(CCC3CCOCC3)nc3c(c2-c2cc4ccnc(N[C@@H]5CCc6ncccc65)c4s2)S(=O)(=O)N2CCC[C@@H]32)o[nH]1` [Compound 198, 5-[(2S)-9-[7-[[(5R)-6,7-dihydro-5H-cyclopenta[b]pyridin-5-yl]amino]thieno[2,3-c]pyridin-2-yl]-7,7-dioxo-11-(2-tetrahydropyran-4-ylethyl)-7thia-6,12-diazatricyclo[6.4.0.02,6]dodeca-1(12),8,10-trien-10-yl]isoxazol-3-one], the EC50 in test [1] was 19.2 nM; in test [2], 1000 nM.
As for `N#Cc1ccc(Cn2c(=O)oc3cc(-c4c(-c5n[nH]c(=O)o5)c(CCc5ccc(F)cc5)nc5c4S(=O)(=O)CC54CC4)ccc32)nc1` [Compound 238, 6-((6-(5′-(4-fluorophenethyl)-1′,1′-dioxido-6′-(5-oxo-4,5-dihydro-1,3,4-oxadiazol-2-yl)-2′H-spiro[cyclopropane-1,3′-thieno[3,2-b]pyridin]-7′-yl)-2-oxobenzo[d]oxazol-3(2H)-yl)methyl)nicotinonitrile], the EC50 in test [1] was determined as 5.12 nM; in test [2], 75.7 nM.
As for `COc1c(F)ccc2c1CC[C@H]2Nc1nc(C)cc2cc(-c3c4c(nc(CCc5ccc(F)cc5)c3-c3n[nH]c(=O)o3)C35CC(CN3C4=O)C5)sc12` [Compound 193, (R)-5-(4-(7-((5-fluoro-4-methoxy-2,3-dihydro-1H-inden-1-yl)amino)-5-methylthieno[2,3-c]pyridin-2-yl)-2-(4-fluorophenethyl)-5-oxo-8,9-dihydro-5H,7H-8,9a-methanopyrido[2,3-a]pyrrolizin-3-yl)-1,3,4-oxadiazol-2(3H)-one], the EC50 came out at 0.00749 nM in test [1] and 0.226 nM in test [2].
Take `CC(C)C1CS(=O)(=O)c2c1nc(CCC1CCOCC1)c(-c1cc(=O)[nH]o1)c2-c1cc2ccnc(N[C@@H]3CCc4ncccc43)c2s1` (stereo partly drawn) [Compound 154, 5-(7-(7-(((R)-6,7-dihydro-5H-cyclopenta[b]pyridin-5-yl)amino)thieno[2,3-c]pyridin-2-yl)-3-isopropyl-1,1-dioxido-5-(2-(tetrahydro-2H-pyran-4-yl)ethyl)-2,3-dihydrothieno[3,2-b]pyridin-6-yl)isoxazol-3(2H)-one]: the figures for the EC50 in test [1] and in test [2] were 52.8 nM and 648 nM, respectively.
With `O=C1c2c(nc(CCc3ccc(F)cc3)c(-c3n[nH]c(=O)o3)c2-c2ccc3c(c2)oc(=O)n3Cc2ncc(Cl)cc2F)[C@@H]2CCCN12` [Compound 208, (S)-3-((5-chloro-3-fluoropyridin-2-yl)methyl)-6-(2-(4-fluorophenethyl)-5-oxo-3-(5-oxo-4,5-dihydro-1,3,4-oxadiazol-2-yl)-7,8,9,9a-tetrahydro-5H-pyrido[2,3-a]pyrrolizin-4-yl)benzo[d]oxazol-2(3H)-one], the results for the EC50 in test [1] and in test [2] were 0.331 nM and 74.4 nM, respectively.
As for `O=C1c2c(nc(CCC3CCOCC3)c(-c3cc(=O)[nH]o3)c2-c2cc3ccnc(N[C@@H]4CCc5ncccc54)c3s2)[C@@H]2CCCN12` [Compound 197, 5-((S)-4-(7-(((R)-6,7-dihydro-5H-cyclopenta[b]pyridin-5-yl)amino)thieno[2,3-c]pyridin-2-yl)-5-oxo-2-(2-(tetrahydro-2H-pyran-4-yl)ethyl)-7,8,9,9a-tetrahydro-5H-pyrido[2,3-a]pyrrolizin-3-yl)isoxazol-3(2H)-one], the EC50 in test [1] stood at 58.9 nM; in test [2] it was 1790 nM.
Take `O=C1c2c(nc(CCc3ccc(F)cc3)c(-c3n[nH]c(=O)o3)c2-c2cc3ccnc(N[C@@H]4CCc5ccc(Cl)cc54)c3s2)C23CC(CN12)C3` [Compound 274, (R)-5-(4-(7-((6-chloro-2,3-dihydro-1H-inden-1-yl)amino)thieno[2,3-c]pyridin-2-yl)-2-(4-fluorophenethyl)-5-oxo-8,9-dihydro-5H,7H-8,9a-methanopyrido[2,3-a]pyrrolizin-3-yl)-1,3,4-oxadiazol-2(3H)-one]: the EC50 in test [1] is 0.255 nM; in test [2], 4.54 nM.
On the same counts, the results for `Cn1cc(Cc2nccc3cc(-c4c5c(nc(CCc6ccc(F)cc6)c4-c4n[nH]c(=O)o4)[C@@H]4CCCN4C5=O)sc23)c2ccccc21` [Compound 249, (S)-5-(2-(4-fluorophenethyl)-4-(7-((1-methyl-1H-indol-3-yl)methyl)thieno[2,3-c]pyridin-2-yl)-5-oxo-7,8,9,9a-tetrahydro-5H-pyrido[2,3-a]pyrrolizin-3-yl)-1,3,4-oxadiazol-2(3H)-one] are 857 nM and 62800 nM.
`O=C1c2c(nc(CCc3ccc(F)cc3)c(-c3noc(=O)[nH]3)c2-c2ccc3c(c2)CCCN3CCc2ccc(F)c(F)c2)[C@@H]2CCCN12` [Compound 114]: the EC50 in test [1] is 396 nM; in test [2] it was 425 nM.

The term EC50 denotes the concentration needed to bring the measured effect to its halfway point.
